{"source": "patent US20160317503A1", "about": "“ZOLMITRIPTAN POWDERS FOR PULMONARY DELIVERY” (Civitas Therapeutics, Inc., priority 2015, published 2016)", "key": {"[1]": {"assay": "DSC / modulated DSC thermal events (Tg, Low T1, Low T2, recrystallization, melt)", "type": "physicochemical", "procedure": "For comparative purposes, a 100% spray-dried zolmitriptan powder was prepared and analyzed via XRPD and DSC to allow for a comparison to the formulations from Example 2 that were placed on stability and to facilitate an interpretation of the resultant thermal data. Initially, a lot of amorphous 100% zolmitriptan was produced via a Buchi 290 Spray-Drying System (spray drying parameters: solids concentration=2 g/L, inlet temperature=90° C., outlet temperature=45° C., drying gas flowrate=20 kg/hr, atomization gas flowrate=10 g/min, aqueous flowrate=4 ml/Min, organic phase flowrate=6 ml/min, spray dryer pressure=−50 mbar) and analyzed via modulated DSC (TA Instruments DSC Q2000 Tzero System, MDSC Parameters: hermetically sealed double lid pan configuration, equilibrate at 0° C. for 5 minutes, ramp up to maximum of 160° C. at 2.0° C./min, modulate+/−1.00° C. every 60 seconds) to determine its glass transition temperature."}, "[2]": {"conditions": "s.c.; cited from earlier work"}}, "data": [{"smiles": "CN(C)CCc1c[nH]c2ccc(C[C@H]3COC(=O)N3)cc12", "note": "[Raw material, Zolmitriptan]", "values": [{"measurement": "Tm (° C.)", "setting": "[1]; 100% zolmitriptan study, t = 0", "value": 136.0, "unit": "°C"}, {"measurement": "ΔH", "setting": "[1]; 100% zolmitriptan study, t = 0", "value": 135.3, "unit": "J/g"}, {"measurement": "Tm (° C.)", "setting": "[1]; 100% zolmitriptan study, t = 0, listed as Zolmitriptan raw material", "value": "approximately 136 °C"}]}, {"smiles": "CN(C)CCc1c[nH]c2ccc(C[C@H]3COC(=O)N3)cc12", "note": "[pure amorphous zolmitriptan, Zolmitriptan]", "values": [{"measurement": "glass transition temperature (Tg)", "setting": "[1]; modulated DSC, amorphous 100% zolmitriptan, Buchi 290", "value": "approximately 33 °C"}]}, {"smiles": "CN(C)CCc1c[nH]c2ccc(C[C@H]3COC(=O)N3)cc12", "note": "[Zolmitriptan]", "values": [{"measurement": "reported half-lives", "setting": "[2]", "value": "~2", "unit": "h"}]}, {"smiles": "CNS(=O)(=O)Cc1ccc2[nH]cc(CCN(C)C)c2c1", "note": "[sumatriptan]", "values": [{"measurement": "reported half-lives", "setting": "[2]", "value": "~2", "unit": "h"}]}]}
